Results on 14 compounds are retold here after ChEMBL document CHEMBL4342489, “Structure-Activity Relationship Evaluation of Wasp Toxin β-PMTX Leads to Analogs with Superior Activity for Human Neuronal Sodium Channels” (ACS Med Chem Lett, 2020).

Common to all, as to format: cell-based
The target in test [1] is Sodium channel protein type 1 subunit alpha (Homo sapiens) (UniProt P35498). Nature of the test: Activation of human Nav1.1 expressed in HEK293 cells assessed as ratio of compound activation AUC to baseline activation AUC at 0.12 uM at -120 mV holding potential by Qpatch assay.
The target is the same in test [2]. The test is described as follows: Activation of human Nav1.1 expressed in HEK293 cells assessed as ratio of compound activation AUC to baseline activation AUC at 1.11 uM at -120 mV holding potential by Qpatch assay.
For test [3] the target is unchanged. The test is described as follows: Activation of human Nav1.1 expressed in HEK293 cells assessed as ratio of compound activation AUC to baseline activation AUC at 0.37 uM at -120 mV holding potential by Qpatch assay.
For test [4] the target is unchanged. The test is described as follows: Activation of human Nav1.1 expressed in HEK293 cells assessed as ratio of compound activation AUC to baseline activation AUC at 3.3 uM at -120 mV holding potential by Qpatch assay.

Structures are written as SMILES. Positions of bridges follow the written chain, without caps; N, C: chain ends. Non-standard residues stand in square brackets, D forms with d. Residues, ends and D or L forms follow the SMILES beside them. Phe(4-Cl) = N[C@@H](Cc1ccc(Cl)cc1)C(=O)O

`CC[C@H](C)[C@H](NC(=O)[C@H](CCCCN)NC(=O)[C@H](CC(C)C)NC(=O)[C@@H](N)CCCNC(=N)N)C(=O)NCC(=O)N[C@@H](CC(C)C)C(=O)N[C@@H](Cc1ccccc1)C(=O)N[C@@H](CC(=O)O)C(=O)N[C@@H](CCC(N)=O)C(=O)N[C@@H](CC(C)C)C(=O)N[C@@H](CO)C(=O)N[C@@H](CCCNC(=N)N)C(=O)N[C@@H](CC(C)C)C(N)=O` (H-RLKIGLFDQLSRL-NH2): the Ratio AUC in test [1], in test [2], in test [3] and in test [4] was 1 throughout.
On to `CC[C@H](C)[C@H](NC(=O)[C@@H](N)CCCNC(=N)N)C(=O)N[C@@H](CCCCN)C(=O)N[C@H](C(=O)N1CCC[C@@H]1C(=O)N[C@@H](CC(C)C)C(=O)N[C@@H](Cc1ccccc1)C(=O)N[C@@H](CC(=O)O)C(=O)N[C@@H](CCC(N)=O)C(=O)N[C@@H](CC(C)C)C(=O)N[C@@H](CO)C(=O)N[C@@H](CCCNC(=N)N)C(=O)N[C@@H](CC(C)C)C(N)=O)[C@@H](C)CC`, for which the Ratio AUC in test [1] came to 1; in test [2], 1.1; in test [3], 1.1; in test [4], 1.1.
Regarding `CC[C@H](C)[C@@H]1NC(=O)[C@@H](NC(=O)[C@@H](NC(=O)[C@@H](N)CCCNC(=N)N)[C@@H](C)CC)CSSC[C@@H](C(=O)N[C@@H](CCC(N)=O)C(=O)N[C@@H](CC(C)C)C(=O)N[C@@H](CO)C(=O)N[C@@H](CCCNC(=N)N)C(=O)N[C@@H](CC(C)C)C(N)=O)NC(=O)[C@H](Cc2ccccc2)NC(=O)[C@H](CC(C)C)NC(=O)CNC1=O` (H-RICIGLFCQLSRL-NH2; disulfide 3-8), the Ratio AUC worked out at 1.1 in test [1], 0.9 in test [2], 0.9 in test [3] and 1 in test [4].
Turning to `CC[C@H](C)[C@H](NC(=O)[C@H](CCCNC(=N)N)NC(=O)[C@@H](NC(=O)[C@@H](N)CCCNC(=N)N)[C@@H](C)CC)C(=O)NCC(=O)N[C@@H](CC(C)C)C(=O)N[C@@H](Cc1ccccc1)C(=O)N[C@@H](CC(=O)O)C(=O)N[C@@H](CCC(N)=O)C(=O)N[C@@H](CC(C)C)C(=O)N[C@@H](Cc1c[nH]c2ccccc12)C(=O)N[C@@H](CCCNC(=N)N)C(=O)N[C@@H](CC(C)C)C(N)=O` (H-RIRIGLFDQLWRL-NH2), the Ratio AUC stood at 1.2 in test [1], 2.8 in test [2], 1.6 in test [3] and 4.3 in test [4].
On to `CC[C@H](C)[C@H](NC(=O)[C@H](CCCCN)NC(=O)[C@@H](NC(=O)[C@@H](N)CCCNC(=N)N)[C@@H](C)CC)C(=O)N[C@H](C)C(=O)N[C@@H](CC(C)C)C(=O)N[C@@H](Cc1ccccc1)C(=O)N[C@@H](CC(=O)O)C(=O)N[C@@H](CCC(N)=O)C(=O)N[C@@H](CC(C)C)C(=O)N[C@@H](CO)C(=O)N[C@@H](CCCNC(=N)N)C(=O)N[C@@H](CC(C)C)C(N)=O`, for which the Ratio AUC in test [1] was 0.1; in test [2] it was 1; in test [3], 0.1; in test [4], 1.1.
For the compound `CC[C@H](C)[C@H](NC(=O)[C@H](CCCCN)NC(=O)[C@@H](NC(=O)[C@@H](N)CC(=O)O)[C@@H](C)CC)C(=O)NCC(=O)N[C@@H](CC(C)C)C(=O)N[C@@H](Cc1ccccc1)C(=O)N[C@@H](CCCNC(=N)N)C(=O)N[C@@H](CCC(N)=O)C(=O)N[C@@H](CC(C)C)C(=O)N[C@@H](CO)C(=O)N[C@@H](CCCNC(=N)N)C(=O)N[C@@H](CC(C)C)C(N)=O` (H-DIKIGLFRQLSRL-NH2), the Ratio AUC in test [1] was determined as 1; in test [2], 1.1; in test [3] it was 1.1; in test [4] it was 1.1.
In the case of `CC[C@H](C)[C@H](NC(=O)[C@H](CCCNC(=N)N)NC(=O)[C@@H](NC(=O)[C@@H](N)CCCNC(=N)N)[C@@H](C)CC)C(=O)NCC(=O)N[C@@H](CC(C)C)C(=O)N[C@@H](Cc1ccccc1)C(=O)N[C@@H](CC(=O)O)C(=O)N[C@@H](CCC(N)=O)C(=O)N[C@@H](CC(C)C)C(=O)N[C@@H](CO)C(=O)N[C@@H](CCCNC(=N)N)C(=O)N[C@@H](CC(C)C)C(N)=O` (H-RIRIGLFDQLSRL-NH2), the Ratio AUC in test [1] turned out to be 1; in test [2], 1.3; in test [3] it was 1.1; in test [4], 2.
The corresponding values for `CC[C@H](C)[C@H](NC(=O)[C@H](CCCNC(=N)N)NC(=O)[C@@H](NC(=O)[C@@H](N)CCCNC(=N)N)[C@@H](C)CC)C(=O)NCC(=O)N[C@@H](CC(C)C)C(=O)N[C@@H](Cc1ccccc1)C(=O)N[C@@H](CC(=O)O)C(=O)N[C@@H](CCC(N)=O)C(=O)N[C@@H](CC(C)C)C(=O)N[C@@H](CC(C)C)C(=O)N[C@@H](CCCNC(=N)N)C(=O)N[C@@H](CC(C)C)C(N)=O` (H-RIRIGLFDQLLRL-NH2) are 1.1, 2.9, 1.6 and 5.8.
For `CC[C@H](C)[C@H](NC(=O)[C@H](CCCNC(=N)N)NC(=O)[C@@H](NC(=O)[C@@H](N)CCCNC(=N)N)[C@@H](C)CC)C(=O)NCC(=O)N[C@@H](CC(C)C)C(=O)N[C@@H](Cc1ccccc1)C(=O)N[C@@H](CC(=O)O)C(=O)N[C@@H](CCC(N)=O)C(=O)N[C@@H](CC(C)C)C(=O)N[C@@H](Cc1ccc(O)cc1)C(=O)N[C@@H](CCCNC(=N)N)C(=O)N[C@@H](CC(C)C)C(N)=O` (H-RIRIGLFDQLYRL-NH2), the Ratio AUC in test [1] is 1; in test [2] it was 1.5; in test [3], 1.1; in test [4], 2.
The corresponding values for `CC[C@H](C)[C@H](NC(=O)[C@H](CC(=O)O)NC(=O)[C@@H](NC(=O)[C@@H](N)CCCNC(=N)N)[C@@H](C)CC)C(=O)NCC(=O)N[C@@H](CC(C)C)C(=O)N[C@@H](Cc1ccccc1)C(=O)N[C@@H](CCCCN)C(=O)N[C@@H](CCC(N)=O)C(=O)N[C@@H](CC(C)C)C(=O)N[C@@H](CO)C(=O)N[C@@H](CCCNC(=N)N)C(=O)N[C@@H](CC(C)C)C(N)=O` (H-RIDIGLFKQLSRL-NH2) are 1.1, 1.1, 1.1 and 1.1.
Take `CC[C@H](C)[C@H](NC(=O)[C@H](CCCNC(=N)N)NC(=O)[C@@H](NC(=O)[C@@H](N)CCCNC(=N)N)[C@@H](C)CC)C(=O)NCC(=O)N[C@@H](CC(C)C)C(=O)N[C@@H](Cc1ccccc1)C(=O)N[C@@H](CC(=O)O)C(=O)N[C@@H](CCC(N)=O)C(=O)N[C@@H](CC(C)C)C(=O)N[C@@H](Cc1ccccc1)C(=O)N[C@@H](CCCNC(=N)N)C(=O)N[C@@H](CC(C)C)C(N)=O` (H-RIRIGLFDQLFRL-NH2): the Ratio AUC in test [1] amounted to 1; in test [2], 1.6; in test [3], 1.1; in test [4], 2.7.
Turning to `CC[C@H](C)[C@H](NC(=O)[C@H](CCCCN)NC(=O)[C@@H](NC(=O)[C@@H](N)CCCNC(=N)N)[C@@H](C)CC)C(=O)NCC(=O)N[C@@H](CC(C)C)C(=O)N[C@@H](Cc1c[nH]c2ccccc12)C(=O)N[C@@H](CC(=O)O)C(=O)N[C@@H](CCC(N)=O)C(=O)N[C@@H](CC(C)C)C(=O)N[C@@H](CO)C(=O)N[C@@H](CCCNC(=N)N)C(=O)N[C@@H](CC(C)C)C(N)=O` (H-RIKIGLWDQLSRL-NH2), the Ratio AUC was 1 in test [1], 0.9 in test [2], 0.9 in test [3] and 1 in test [4].
With `CC[C@H](C)[C@@H]1NC(=O)[C@H](CCCCN)NC(=O)[C@H]([C@@H](C)CC)NC(=O)[C@@H](N)CSSC[C@@H](C(=O)N[C@@H](CCC(N)=O)C(=O)N[C@@H](CC(C)C)C(=O)N[C@@H](CO)C(=O)N[C@@H](CCCNC(=N)N)C(=O)N[C@@H](CC(C)C)C(N)=O)NC(=O)[C@H](Cc2ccccc2)NC(=O)[C@H](CC(C)C)NC(=O)CNC1=O` (H-CIKIGLFCQLSRL-NH2; disulfide 1-8), the Ratio AUC amounted to 1 in test [1], 1 in test [2], 1.1 in test [3] and 1.1 in test [4].
Turning to `CC[C@H](C)[C@H](NC(=O)[C@H](CCCNC(=N)N)NC(=O)[C@@H](NC(=O)[C@@H](N)CCCNC(=N)N)[C@@H](C)CC)C(=O)NCC(=O)N[C@@H](CC(C)C)C(=O)N[C@@H](Cc1ccccc1)C(=O)N[C@@H](CC(=O)O)C(=O)N[C@@H](CCC(N)=O)C(=O)N[C@@H](CC(C)C)C(=O)N[C@@H](Cc1ccc(Cl)cc1)C(=O)N[C@@H](CCCNC(=N)N)C(=O)N[C@@H](CC(C)C)C(N)=O` (H-RIRIGLFDQL[Phe(4-Cl)]RL-NH2), the Ratio AUC was found to be 1.1 in test [1], 1.8 in test [2], 1.2 in test [3] and 3.5 in test [4].
